Assay results from patent publication US9686992B2, “Pesticidal mixtures including spiroheterocyclic pyrrolidine diones” (Syngenta Participations AG, priority 2012, dated 2017).

Columns and labels:
[1] = test system: Myzus persicae (Green Peach Aphid); assay: Myzus persicae feeding/residual contact activity, preventive (sunflower leaf discs); format: in vivo; conditions: single active ingredient, 6 DAT
From the text: (§1) The action to be expected E for a given active ingredient combination obeys the so-called COLBY formula and can be calculated as follows (COLBY, S. R. “Calculating synergistic and antagonistic responses of herbicide combination”. Weeds, Vol. 15, pages 20-22; 1967):
(§2) ppm=milligrams of active ingredient (=a.i.) per liter of spray mixture
(§3) X=% action by active ingredient A) using p ppm of active ingredient
(§4) Y=% action by active ingredient B) using q ppm of active ingredient.
(§5) According to COLBY, the expected (additive) action of active ingredients A)+B) using p+q ppm of active ingredient is
(§6) If the action actually observed (0) is greater than the expected action (E), then the action of the combination is super-additive, i.e. there is a synergistic effect. In mathematical terms the synergism factor SF corresponds to O/E. In the agricultural practice an SF of ≧1.2 indicates significant improvement over the purely complementary addition of activities (expected activity), while an SF of ≦0.9 in the practical application routine signals a loss of activity compared to the expected activity.
Myzus persicae (Green Peach Aphid):
Feeding/Residual Contact Activity, Preventive
Sunflower leaf discs were placed on agar in a 24-well microtiter plate and sprayed with the DMSO test solutions of Mixtures (as provided by Table 45). After drying, the leaf discs were infested with an aphid population of mixed ages. After an incubation period of 6 DAT (days after treatment), samples were checked for mortality.

[2] = test system: Tetranychus urticae (Two-Spotted Spider Mite); assay: Tetranychus urticae feeding/contact activity, preventive (bean leaf discs); format: in vivo; conditions: single active ingredient, mobile stages
From the text: as §1, §2, §3, §4, §5, §6
Tetranychus urticae (Two-Spotted Spider Mite): Feeding/Contact Activity, Preventive
Bean leaf discs on agar in 24-well microtiter plates were sprayed with the DMSO test solutions of certain Mixtures (as provided by Table 45). After drying, the leaf discs were infested with mite populations of mixed ages. 8 days later, discs were checked for mortality against mobile stages.

## N#CCNC(=O)c1cnccc1C(F)(F)F [Flonicamid]
[1]; 0.75 ppm AI
  AVERAGE DEAD IN % AFTER 6 DAYS: 0%
[1]; 1.5 ppm AI
  AVERAGE DEAD IN % AFTER 6 DAYS: 0%
[1]; 3 ppm AI
  AVERAGE DEAD IN % AFTER 6 DAYS: 7.5%
[1]; 6 ppm AI
  AVERAGE DEAD IN % AFTER 6 DAYS: 40%
[1]; 12 ppm AI
  AVERAGE DEAD IN % AFTER 6 DAYS: 82.5%
[2]; 50 ppm AI
  AVERAGE DEAD IN % AFTER 8 DAYS: 0%
[2]; 100 ppm AI
  AVERAGE DEAD IN % AFTER 8 DAYS: 0%
[2]; 200 ppm AI
  AVERAGE DEAD IN % AFTER 8 DAYS: 0%
[2]; 400 ppm AI
  AVERAGE DEAD IN % AFTER 8 DAYS: 0%
[2]; 800 ppm AI
  AVERAGE DEAD IN % AFTER 8 DAYS: 12.5%
